Where two headings read alike, the source gives them in different places. *1 amine or outer side, *2 acyl side, *3 side chain or, on linkers, in order; H or OH if unused. Where a SMILES comes first, the peptide text is derived from it. Bridges are numbered along the chain shown (N, C = ends). [ ]: non-standard residue; d: D form. The star is where a group is joined. hPhe(3-Cl-4-CF3) = N[C@@H](CCc1ccc(C(F)(F)F)c(Cl)c1)C(=O)O; NPrPhe(4-CF3) = CCCN[C@@H](Cc1ccc(C(F)(F)F)cc1)C(=O)O; X43 = CCCN([C@@H](Cc1ccccc1)C(=O)[*:2])[*:1]; Pro(4-spirocPr) = O=C(O)[C@@H]1CC2(CC2)CN1; Pip(4,4-F2) = O=C(O)[C@@H]1CC(F)(F)CCN1; NMeGly(cPent) = CN[C@H](C(=O)O)C1CCCC1; NMeD = CN[C@@H](CC(=O)O)C(=O)O; NMeL = CN[C@@H](CC(C)C)C(=O)O; Morpholide = C1CN(*)CCO1; NMeA = CN[C@@H](C)C(=O)O; Ac5c = NC1(C(=O)O)CCCC1; Aze = O=C(O)[C@@H]1CCN1; Sar = CNCC(=O)O
Experiments:
[1] = biological target: GDP-bound KRAS wild-type protein (Homo sapiens, UniProt P01116); experiment: Binding to KRAS by surface plasmon resonance (SPR), Single Cycle Kinetics; settings: GDP-bound KRAS wild-type protein, read-out: KRAS KD
[2] = biological target: GDP-bound NRAS wild-type protein (Homo sapiens, UniProt P01111); experiment: Binding to NRAS by surface plasmon resonance (SPR), Single Cycle Kinetics; settings: for NRAS/KRAS (ratio of KD value with respect to GDP-bound NRAS wild-type protein to KD value with respect to KRAS): SPR KD ratio NRAS/KRAS, class symbols
[3] = biological target: GDP-bound HRAS wild-type protein (Homo sapiens, UniProt P01112); experiment: Binding to HRAS by surface plasmon resonance (SPR), Single Cycle Kinetics; settings: for HRAS/KRAS (ratio of KD value with respect to GDP-bound HRAS wild-type protein to KD value with respect to KRAS): SPR KD ratio HRAS/KRAS, class symbols
[4] = SPR, GDP-bound NRAS wild-type protein vs GDP-bound KRAS wild-type protein
[5] = SPR, GDP-bound HRAS wild-type protein vs GDP-bound KRAS wild-type protein
[6] = SPR Single Cycle Kinetics, 1:1 binding model

Chain of GDP-bound HRAS wild-type protein (P01112 whole entry): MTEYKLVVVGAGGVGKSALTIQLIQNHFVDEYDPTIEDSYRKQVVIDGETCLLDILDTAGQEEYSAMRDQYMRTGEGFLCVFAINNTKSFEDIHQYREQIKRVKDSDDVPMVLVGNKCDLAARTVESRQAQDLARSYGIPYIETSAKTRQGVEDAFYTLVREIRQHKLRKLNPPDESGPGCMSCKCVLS
Chain of GDP-bound KRAS wild-type protein (P01116 whole entry): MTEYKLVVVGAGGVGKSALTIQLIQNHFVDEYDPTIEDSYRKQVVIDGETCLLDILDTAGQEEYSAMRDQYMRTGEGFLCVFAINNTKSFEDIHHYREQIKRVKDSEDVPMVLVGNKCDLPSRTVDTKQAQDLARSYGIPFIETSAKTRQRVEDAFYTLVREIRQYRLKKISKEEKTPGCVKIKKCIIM
Chain of GDP-bound NRAS wild-type protein (P01111 whole entry): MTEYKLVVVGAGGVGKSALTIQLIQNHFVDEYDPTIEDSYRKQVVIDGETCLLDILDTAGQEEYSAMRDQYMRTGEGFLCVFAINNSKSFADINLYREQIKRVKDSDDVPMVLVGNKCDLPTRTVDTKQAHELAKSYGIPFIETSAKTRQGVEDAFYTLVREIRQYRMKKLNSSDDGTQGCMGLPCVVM

SMILES | Kd ([1]; SPR, Single Cycle Kinetics) [nM] | NRAS/KRAS (ratio of KD value for NRAS to KD value for KRAS) [2, 4] | HRAS/KRAS (ratio of KD value for HRAS to KD value for KRAS) [3, 5] | Kd [1, 6] [nM] | NRAS/KRAS (ratio of KD value with respect to GDP-bound NRAS wild-type protein to KD value with respect to KRAS) [2] | HRAS/KRAS (ratio of KD value with respect to GDP-bound HRAS wild-type protein to KD value with respect to KRAS) [3] | NRAS/KRAS (ratio of KD value with respect to NRAS to KD value with respect to KRAS) [2, 4] | HRAS/KRAS (ratio of KD value with respect to HRAS to KD value with respect to KRAS) [3, 5]
CCC[C@H]1C(=O)N[C@@H](C2CCOCC2)C(=O)N(C)CC(=O)N(C)[C@H]2C/C=C\CCN(C2=O)[C@@H](Cc2ccc(C(F)(F)F)cc2)C(=O)N(C)CC(=O)N[C@@H](CCc2ccc(C(F)(F)F)c(Cl)c2)C(=O)N2C[C@H](OCC)C[C@H]2C(=O)NC2(CC(C)(C)C2)C(=O)N(C)[C@@H](CC(C)(C)C)C(=O)N(C)[C@H](C(=O)N(C)C)CC(=O)N1C [PP3022] | 0.59 | AA (a compound having 20 or more is denoted as AA) | A (a compound having 10 or more and less than 20 is denoted as A) |  |  |  |  | 
CCC(CC)[C@H]1C(=O)N(C)[C@H](C(=O)N(C)C)CC(=O)N(C)[C@@H](COC)C(=O)N[C@@H]([C@@H](C)CC)C(=O)N(C)CC(=O)N(C)[C@H]2C/C=C\CCN(C2=O)[C@@H](Cc2ccc(C(F)(F)F)cc2)C(=O)N(C)CC(=O)N[C@@H](CCc2cc(F)c(C(F)(F)F)c(F)c2)C(=O)N2CC[C@H]2C(=O)NC2(CC(C)(C)C2)C(=O)N1C [PP2918] |  |  |  | 1.8 | AA (a compound having 20 or more is denoted as AA) | A (a compound having 10 or more and less than 20 is denoted as A) |  | 
CCO[C@@H]1C[C@H]2C(=O)NC3(CC(F)(F)C3)C(=O)N(C)[C@@H](C3CCCC3)C(=O)N(C)[C@H](C(=O)N3CCOCC3)CC(=O)N(C)[C@@H](COC)C(=O)N[C@@H]([C@@H](C)CC)C(=O)N(C)CC(=O)N(C)[C@H]3CCCCCN(C3=O)[C@@H](Cc3ccc(C(F)(F)F)cc3)C(=O)N(C)CC(=O)N[C@@H](CCc3cc(F)c(C(F)(F)F)c(F)c3)C(=O)N2C1 [PP0843] | 0.52 | B (a compound having 3 or more and less than 10 is denoted as B) | B (a compound having 3 or more and less than 10 is denoted as B) |  |  |  |  | 
CC[C@H](C)[C@@H]1NC(=O)[C@H](CC(C)C)N(C)C(=O)C[C@@H](C(=O)N2CCOCC2)N(C)C(=O)[C@H](C2CCCC2)N(C)C(=O)C2(CCCC2)NC(=O)[C@@H]2CCCN2C(=O)[C@H](CCc2cc(F)c(C(F)(F)F)c(F)c2)NC(=O)CN(C)C(=O)[C@H](Cc2ccc(C(F)(F)F)cc2)N2CCCCC[C@@H](C2=O)N(C)C(=O)CN(C)C1=O [PP0490] |  |  |  | 2.4 |  |  | B (a compound having 3 or more and less than 10 is denoted as B) | B (a compound having 3 or more and less than 10 is denoted as B)
CCCN1C(=O)CN(C)C(=O)CN(C)C(=O)[C@H]([C@@H](C)CC)NC(=O)[C@H](CC(C)C)N(C)C(=O)C[C@@H](C(=O)N2CCOCC2)N(C)C(=O)[C@H](C2CCCC2)N(C)C(=O)C2(CCCC2)NC(=O)[C@@H]2CC(F)(F)CCN2C(=O)[C@H](CCc2ccc(C(F)(F)F)c(Cl)c2)NC(=O)CN(C)C(=O)[C@@H]1Cc1ccc(C(F)(F)F)cc1 [PP0264] ([NMeL]I[Sar][Sar][NPrPhe(4-CF3)][Sar][hPhe(3-Cl-4-CF3)][Pip(4,4-F2)][Ac5c][NMeGly(cPent)][NMeD]-Morpholide; lactam N-11) |  | B (a compound having 3 or more and less than 10 is denoted as B) | C (A compound having a KD ratio of 0.1 or more and less than 3 is denoted as C) | 0.42 |  |  |  | 
CCCN1C(=O)[C@@H]2CCN2C(=O)[C@H](C)N(C)C(=O)[C@H]([C@@H](C)CC)NC(=O)[C@H](CC(C)C)N(C)C(=O)C[C@@H](C(=O)N2CCOCC2)N(C)C(=O)[C@H](C2CCCC2)N(C)C(=O)C2(CCCC2)NC(=O)[C@@H]2CC3(CC3)CN2C(=O)[C@H](CCc2ccc(C(F)(F)F)c(Cl)c2)NC(=O)CN(C)C(=O)[C@@H]1Cc1ccc(C(F)(F)F)cc1 [PP0282] ([NMeL]I[NMeA][Aze][NPrPhe(4-CF3)][Sar][hPhe(3-Cl-4-CF3)][Pro(4-spirocPr)][Ac5c][NMeGly(cPent)][NMeD]-Morpholide; lactam N-11) |  | C (A compound having a KD ratio of 0.1 or more and less than 3 is denoted as C) | C (A compound having a KD ratio of 0.1 or more and less than 3 is denoted as C) | 0.11 |  |  |  | 
CCC[C@H]1C(=O)N[C@@H]([C@@H](C)CC)C(=O)N(C)CC(=O)N(C)[C@H]2C/C=C\CCN(C2=O)[C@@H](Cc2ccc(C(F)(F)F)cc2)C(=O)N(C)CC(=O)N[C@@H](CCc2ccc3sc(C)c(C)c3c2)C(=O)N2C[C@H](OCC)C[C@H]2C(=O)NC2(CC(C)(C)C2)C(=O)N(C)[C@@H](C2CCCC2)C(=O)N(C)[C@H](C(=O)N(C)C)CC(=O)N1C [PP2889] |  |  |  | 0.29 | A (a compound having 10 or more and less than 20 is denoted as A) | A (a compound having 10 or more and less than 20 is denoted as A) |  | 
CCO[C@@H]1C[C@H]2C(=O)NC3(CC(C)(C)C3)C(=O)N(C)[C@@H](C(CC)CC)C(=O)N(C)[C@H](C(=O)N3CCCC3)CC(=O)N(C)[C@@H](COC)C(=O)N[C@@H]([C@@H](C)CC)C(=O)N(C)CC(=O)N(C)[C@H]3C/C=C\CCN(C3=O)[C@@H](Cc3ccc(C(F)(F)F)cc3)C(=O)N(C)CC(=O)N[C@@H](CCc3ccc(Cl)c(Cl)c3)C(=O)N2C1 [PP2174] | 0.4 | AA (a compound having 20 or more is denoted as AA) | A (a compound having 10 or more and less than 20 is denoted as A) |  |  |  |  | 
CCCN1C(=O)CN(C)C(=O)CN(C)C(=O)[C@H]([C@@H](C)CC)NC(=O)[C@H](CC(C)C)N(C)C(=O)C[C@@H](C(=O)N2CCOCC2)N(C)C(=O)[C@H](C2CCCC2)N(C)C(=O)C2(CCCC2)NC(=O)[C@@H]2CCCN2C(=O)[C@H](CCc2ccc(C(F)(F)F)c(Cl)c2)NC(=O)CN(C)C(=O)[C@@H]1Cc1ccccc1 [PP0211] ([NMeL]I[Sar][Sar][X43][Sar][hPhe(3-Cl-4-CF3)]P[Ac5c][NMeGly(cPent)][NMeD]-Morpholide; lactam N-11) |  | B (a compound having 3 or more and less than 10 is denoted as B) | C (A compound having a KD ratio of 0.1 or more and less than 3 is denoted as C) | 0.27 |  |  |  | 
CC[C@H](C)[C@@H]1NC(=O)[C@H](C)N(C)C(=O)C[C@@H](C(=O)N(C)C)N(C)C(=O)[C@H](C2CCCC2)N(C)C(=O)C2(CCC2)NC(=O)[C@@H]2CC(F)(F)CN2C(=O)[C@H](CCc2cc(F)c(C(F)(F)F)c(F)c2)NC(=O)CN(C)C(=O)[C@H](Cc2ccc(C(F)(F)F)cc2)N2CC/C=C\C[C@@H](C2=O)N(C)C(=O)CN(C)C1=O [PP1103, (2S,8S,14S,20S,23S,27S,30S,36S,38Z)-20-cyclopentyl-8-[2-[3,5-difluoro-4-(trifluoromethyl)phenyl]ethyl]-12,12-difluoro-N,N,4,19,22,26,27,32,35-nonamethyl-30-[(1S)-1-methylpropyl]-3,6,9,15,18,21,25,28,31,34,42-undecaoxo-2-[[4-(trifluoromethyl)phenyl]methyl]spiro[1,4,7,10,16,19,22,26,29,32,35-undecazatricyclo[34.5.1.0^10,14]dotetracont-38-ene-17,1′-cyclobutane]-23-carboxamide] | 0.036 | A (a compound having 10 or more and less than 20 is denoted as A) | B (a compound having 3 or more and less than 10 is denoted as B) |  |  |  |  | 
C#CC[C@H]1C(=O)N[C@@H]([C@@H](C)CC)C(=O)N(C)CC(=O)N(C)[C@H]2C/C=C\CCN(C2=O)[C@@H](Cc2ccc(C(F)(F)F)cc2)C(=O)N(C)CC(=O)N[C@@H](CCc2cc(F)c(C(F)(F)F)c(F)c2)C(=O)N2C[C@@H](C)C[C@H]2C(=O)NC2(CC(C)(C)C2)C(=O)N(C)[C@@H](C2CCCC2)C(=O)N(C)[C@H](C(=O)N(C)CCC)CC(=O)N1C [PP2076] | 0.39 | A (a compound having 10 or more and less than 20 is denoted as A) | A (a compound having 10 or more and less than 20 is denoted as A) |  |  |  |  | 
CCC[C@H]1C(=O)N[C@@H](C(CC)CC)C(=O)N(C)CC(=O)N(C)[C@H]2C/C=C\CCN(C2=O)[C@@H](Cc2ccc(C)cc2)C(=O)N(C)CC(=O)N[C@@H](CCc2ccc(C(F)(F)F)c(Cl)c2)C(=O)N2C[C@H](OCC)C[C@H]2C(=O)NC2(CC(C)(C)C2)C(=O)N(C)[C@@H](CC(C)(C)C)C(=O)N(C)[C@H](C(=O)N(C)C)CC(=O)N1C [PP2207] | 0.79 | A (a compound having 10 or more and less than 20 is denoted as A) | A (a compound having 10 or more and less than 20 is denoted as A) |  |  |  |  | 
CCC[C@H]1C(=O)N[C@@H]([C@@H](C)CC)C(=O)N(C)CC(=O)N(C)[C@H]2C/C=C\CCN(C2=O)[C@@H](Cc2ccc(C)cc2)C(=O)N(C)CC(=O)N[C@@H](CCc2ccc(C(F)(F)F)c(OC)c2)C(=O)N2C[C@H](OCC)C[C@H]2C(=O)NC2(CC(C)(C)C2)C(=O)N(C)[C@@H]([C@@H](C)CC)C(=O)N(C)[C@H](C(=O)N(C)C)CC(=O)N1C [PP3006] | 0.41 | A (a compound having 10 or more and less than 20 is denoted as A) | A (a compound having 10 or more and less than 20 is denoted as A) |  |  |  |  | 

From patent publication US20240158446A1, “CYCLIC COMPOUND HAVING SELECTIVE INHIBITORY ACTION ON KRAS OVER HRAS AND NRAS” (CHUGAI SEIYAKU KABUSHIKI KAISHA, priority 2021, published 2024)
